“Also recorded” adds a separate entry of the source.
How the values were obtained:
[1] = system: prefrontal neurons from wildtype littermates; assay: Whole-cell current-clamp AP output in prefrontal neurons from wildtype littermates; type: cell-based, mouse
Method: (§1) In the mouse model used for Pitt-Hopkins syndrome (Sweatt, 2013) mice are heterozygous for a deletion of the DNA-binding domain of the Transcription Factor 4 (B6; 129-TCF4tm1Zhu/J; stock number 013598, Jackson Laboratory, Bar Harbor, Me.) (Zhuang et al., 1996). Control mouse experiments were conducted with wild-type littermates. Mice were maintained by SoBran on a 12-hour light cycle and fed ad libitum.
(§2) Acute brain slices were obtained from rats and mice as described previously (Maher and Loturco, 2012b). […]
(§3) For all experiments, artificial cerebrospinal fluid (ACSF) was oxygenated (95% O2 and 5% CO2) and contained in (in mM): 125 NaCl, 25 NaHCO3, 1.25 NaH2PO4, 3 KCl, 25 dextrose, 1 MgCl2, and 2 CaCl2, pH 7.3. […] Current signals were recorded with either a Multiclamp 700A (Molecular Devices) or with an Axopatch 200B amplifier (Molecular Devices) and were filtered at 2 kHz using a built-in Bessel filter and digitized at 10 kHz. […]
(§4) Axograph was used on a Macintosh computer for analysis. […] Each current pulse was measured in triplicate, and the number of resulting APs was averaged. For analysis of fAHP amplitude, the second and third current evoked spikes within the 600 ms pulse were measured. The fAHP potential was measured by subtracting the voltage at the peak of the fAHP from the threshold potential for spike initiation (slope of AP exceeds 50 mV/ms). […]

TCF4+/tr cells = assay: Whole-cell current-clamp AP spiking in mPFC layer 2/3 neurons of the PTHS mouse model; type: cell-based
Method: as §1, §2, §3, §4

shTCF4 cells = assay: Whole-cell current-clamp recordings (AP spiking, mAHP/sAHP) in shTCF4 (TCF4 knockdown) mPFC layer 2/3 pyramidal neurons, acute brain slices; type: cell-based, rat; conditions: shTCF4 cells
Method: (§5) Pregnant Wistar rats were obtained from Charles River Laboratories, Inc., maintained by SoBran on a 12-hour light cycle and fed ad libitum. In utero electroporation was performed as previously described (Chen et al., 2014; Maher and Loturco, 2012a). Electroporation was performed on embryonic day 16 (E16) and gestation age was confirmed during surgery. All plasmids were used at a final concentration of 1.5 μg/μl, and the mPFC was targeted for transfection. Pregnant dams were returned to the same housing conditions after recovery from surgery, and after litters were born, transfected rats were used for experiments at days P18-24.
(§6) Acute brain slices were obtained from rats and mice as described previously (Maher and Loturco, 2012b). Briefly, P18-24 male and female animals were deeply anesthetized with isoflurane and transcardially perfused with ice-cold oxygenated (95% O2 and 5% CO2) dissecting buffer containing (in mM): 83 NaCl, 2.5 KCl, 1 NaH2PO4, 26.2 NaHCO3, 22 glucose, 72 sucrose, 0.5 CaCl2, and 3.3 MgCl2. Animals were humanly sacrificed and decapitated and the brains were rapidly removed and immersed in ice-cold oxygenated dissection buffer. Coronal slices (300 μm) were cut using a vibratome (Microm HM650V), incubated in dissection buffer for 30-45 minutes at 34° C., and then stored at room temperature. Slices were visualized using IR differential interference microscopy (DIC) (Olympus BX51WI) and a CCD camera (QICAM, QImaging). Individual layer 2/3 pyramidal cells expressing EGFP in rat brain slices were visualized with epifluorescent illumination and a 43× Olympus LUMPlanFLN (0.8 numerical aperture) objective.
(§7) For all experiments, artificial cerebrospinal fluid (ACSF) was oxygenated (95% O2 and 5% CO2) and contained in (in mM): 125 NaCl, 25 NaHCO3, 1.25 NaH2PO4, 3 KCl, 25 dextrose, 1 MgCl2, and 2 CaCl2, pH 7.3. Patch pipettes were fabricated from borosilicate glass (N51A, King Precision Glass, Inc.) to a resistance of 2-5 MΩ. For current- and voltage-clamp measurements, pipettes were filled with (in mM): 125 potassium gluconate, 10 HEPES, 4 Mg-ATP, 0.3 Na-GTP, 0.1 EGTA, 10 phosophocreatine, 0.05% biocytin, adjusted to pH 7.3 with KOH. For all experiments GABAa receptors were blocked with SR-95531 (Gabazine, 5 μM, Ascent Scientific). For AHP current experiments, synaptic currents were blocked with DL-2-amino-5-phosphopentanoic acid (D,L-AP5, 100 μM, Ascent Scientific), 2,3, dioxo-6-nitro-1,2,3,4, tetrahydrobenzo-quinoxaline-7-sulfonamide (NBQX, 10 μM) and SR-95531 (Gabazine, 5 μM, Ascent Scientific). Ca2+-activated currents were blocked with Tetraethylammonium chloride (TEA, 1 mM, Abcam), apamin (100 nM, Abcam), and carbachol (10 μM, Abcam). Current signals were recorded with either a Multiclamp 700A (Molecular Devices) or with an Axopatch 200B amplifier (Molecular Devices) and were filtered at 2 kHz using a built-in Bessel filter and digitized at 10 kHz. Voltage signals were filtered at 2 kHz and digitized at 10 kHz. Data were acquired using Axograph on a Dell PC. Data acquisition was terminated when series resistance was >15 MΩ. For voltage clamp recordings, pyramidal cells were held at −60 mV. No holding current was used for current-clamp recordings.
(§8) Axograph was used on a Macintosh computer for analysis. To measure spike frequency, EGFP-positive layer 2/3 neurons of the mPFC were injected with a 600 ms depolarizing current pulses ranging from 50 to 500 pA at 50 pA increments with an 10 s inter-trial interval. Each current pulse was measured in triplicate, and the number of resulting APs was averaged. For analysis of fAHP amplitude, the second and third current evoked spikes within the 600 ms pulse were measured. The fAHP potential was measured by subtracting the voltage at the peak of the fAHP from the threshold potential for spike initiation (slope of AP exceeds 50 mV/ms). The mAHP potential was measured at the peak of the AHP that followed the 600 ms current pulse. […]

KCNQ1 = KCNQ1 (Homo sapiens, UniProt P51787); conditions: KCNQ subtype-selective blocker; Soh and Tzingounis, 2010; cited from earlier work
crTCF4 cells = assay: Whole-cell current-clamp AP spiking in crTCF4 (CRISPR-Cas9 TCF4 mutated) mPFC neurons; type: cell-based, rat
Method: as §5, §2
(§9) For all experiments, artificial cerebrospinal fluid (ACSF) was oxygenated (95% O2 and 5% CO2) and contained in (in mM): 125 NaCl, 25 NaHCO3, 1.25 NaH2PO4, 3 KCl, 25 dextrose, 1 MgCl2, and 2 CaCl2, pH 7.3. […] Current signals were recorded with either a Multiclamp 700A (Molecular Devices) or with an Axopatch 200B amplifier (Molecular Devices) and were filtered at 2 kHz using a built-in Bessel filter and digitized at 10 kHz.

crEmpty cells = assay: Whole-cell current-clamp AP spiking in crEmpty (CRISPR control) mPFC neurons; type: cell-based, rat
Method: as §5, §2, §9

KCNQ2 = KCNQ2 (Homo sapiens, UniProt O43526); conditions: KCNQ subtype-selective blocker; Soh and Tzingounis, 2010; cited from earlier work
shCon cells = assay: Whole-cell current-clamp recordings (AP spiking, mAHP/sAHP) in shCon (control shRNA) mPFC layer 2/3 pyramidal neurons, acute brain slices; type: cell-based, rat
Method: as §5, §6, §7, §8

Compound	effect on action potential output ([1]; UCL2077, p=0.58, N=11)	effect on the frequency of AP spiking (TCF4+/tr cells; UCL2077, N=8)	effect on the frequency of APs generated in response to current injections (shTCF4 cells; UCL2077 10 μM, before vs after, within neuron, significant for current pulses 250-500 pA, N=17, p=0.0002)	amplitude of the sAHP after application (shTCF4 cells; UCL2077, before −2.88±0.42 mV, N=19, p<0.05) [mV]	amplitude of the mAHP after application (shTCF4 cells; UCL2077, before −4.43±0.55 mV, N=19, p=0.003) [mV]	inhibition of KCNQ1 (KCNQ1)	effect on the frequency of APs (crTCF4 cells; UCL2077, significant for current pulses 400-500 pA, N=7, p=0.045)	effect on AP frequency (crEmpty cells; UCL2077, p=0.99)	inhibition of KCNQ2 (KCNQ2)	effect on the frequency of APs (spiking) (shCon cells; UCL2077, N=8, p=0.35)	amplitude of the sAHP after application (shCon cells; UCL2077, before −2.60±0.42 mV, N=9, not significant) [mV]	amplitude of the mAHP after application (shCon cells; UCL2077, before −3.78±0.66 mV, N=9, not significant) [mV]	effect on action potential output ([1]; A-803467, p=0.06, N=5)	effect on the frequency of APs (TCF4+/tr cells; A-803467, significant for current pulses 250-350 pA, N=8)	effect on the frequency of APs generated in response to increasing current injections (shTCF4 cells; A-803467 200 nM bath application, significant for current pulses 350-500 pA, N=11, p<0.05)	effect on the frequency of APs (crTCF4 cells; A-803467, significant for current pulses 400-500 pA, N=8, p=0.039)	effect on AP frequency (crEmpty cells; A-803467, p=0.15)	effect on firing frequency (shCon cells; A-803467, N=7, p=0.14)
c1ccc(C(NCc2cccnc2)(c2ccccc2)c2ccccc2)cc1 [UCL2077, N-Trityl-3-pyridinemethanamine]	has no effect on action potential output	had no effect; also recorded: has no effect on the frequency of AP spiking	effective at increasing the spiking frequency; also recorded: significantly increased firing frequency	−2.53±0.38	−3.736±0.49	strongly inhibits	significantly increased firing frequency	No effect on AP frequency	strongly inhibits	neither UCL2077 (p=0.35) nor JNJ303 (p=0.11) had an effect on spiking	−2.69±0.48	−4.01±0.66	–	–	–	–	–	–
COc1cc(NC(=O)c2ccc(-c3ccc(Cl)cc3)o2)cc(OC)c1 [A-803467, 5-(4-Chlorophenyl)-N-(3,5-dimethoxyphenyl)-2-furancarboxamide]	–	–	–	–	–	–	–	–	–	–	–	–	has no effect on action potential output	effective at rescuing AP output; also recorded: significantly increased firing frequency	effective at increasing firing frequency; also recorded: significantly increased firing	effective at increasing firing frequency; also recorded: significantly increased firing frequency	had no effect on firing frequency; also recorded: No effect on AP frequency	had no effect on firing frequency

From patent US11221329B2, “Treatment of neurological and neurodevelopmental diseases and disorders associated with aberrant ion channel expression and activity” (LIEBER INSTITUTE FOR BRAIN DEVELOPMENT, priority 2015, dated 2022)
